Source: US20260365670A1, “EGFR INHIBITORS AND USES THEREOF” (DIZAL (JIANGSU) PHARMACEUTICAL CO., LTD., priority 2022, published 2026)
pIC50: −log10 of the molar value. Where two headings read alike, the source gives them in different places.

Tests used:
A-431 = assay: Cell proliferation assay, A-431 cells (GI50, Table 6); type: cell-based
EGFR (d746-750 C797S) = target: T1, EGFR (d746-750 C797S) (Homo sapiens, UniProt P00533, C797S/DEL746-750); assay: Inhibition of EGFR (d746-750 C797S) biochemical enzymatic activity (HTRF); conditions: EGFR (d746-750 C797S), 1 mM ATP, 1 h at room temperature, read-out: IC50 @Del19-C797S
T1 construct: purchased signalchem
T1 sequence (P00533 with tags, fused parts or gaps DEL746-750/C797S limits assumed): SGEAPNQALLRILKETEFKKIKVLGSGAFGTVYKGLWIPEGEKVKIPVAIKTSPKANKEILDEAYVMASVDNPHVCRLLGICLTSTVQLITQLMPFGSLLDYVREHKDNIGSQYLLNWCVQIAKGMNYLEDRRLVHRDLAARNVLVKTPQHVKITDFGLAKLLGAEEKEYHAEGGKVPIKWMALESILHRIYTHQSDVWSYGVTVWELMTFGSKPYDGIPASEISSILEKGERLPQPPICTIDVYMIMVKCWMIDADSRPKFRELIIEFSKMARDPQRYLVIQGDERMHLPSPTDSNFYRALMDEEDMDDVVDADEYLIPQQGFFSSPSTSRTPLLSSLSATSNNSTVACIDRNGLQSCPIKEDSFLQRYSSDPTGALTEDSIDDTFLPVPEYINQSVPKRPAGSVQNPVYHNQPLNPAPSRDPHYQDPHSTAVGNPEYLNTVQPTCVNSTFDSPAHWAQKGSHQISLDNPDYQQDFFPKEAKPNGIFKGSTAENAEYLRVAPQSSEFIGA
Method in brief: (§1)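 Enzyme preincubated with compound, then ATP (1 mM) and TK substrate-biotin (1 μM) added; 1 h RT; stopped with EDTA-containing detection mix; HTRF read (ex 320, em 615/665 nm); IC50 by 4-parameter logistic fit.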

[1] = tested on: Ba/F3 cells expressing EGFR mutations; assay: Cell proliferation assay, Ba/F3 cells expressing EGFR mutations (CellTiter-Glo, 72 hours); type: cell-based
Method in brief: (§2)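 GI50 is the concentration giving 50% proliferation inhibition. Growth for this was normalised to a baseline viability reading taken when compound was added, and to DMSO wells. PC-9 (500 cells/well) and mutant-EGFR Ba/F3 (5000 cells/well) are treated after overnight seeding in RPMI1640-based medium.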

EGFR wild type = target: T2, EGFR wild type (Homo sapiens, UniProt P00533); assay: Inhibition of EGFR wild type biochemical enzymatic activity (HTRF); conditions: EGFR wild type, 1 mM ATP, 1 h at room temperature, read-out: IC50 @WT
T2 construct: purchased Carna Bio
T2 sequence (P00533 25-1210): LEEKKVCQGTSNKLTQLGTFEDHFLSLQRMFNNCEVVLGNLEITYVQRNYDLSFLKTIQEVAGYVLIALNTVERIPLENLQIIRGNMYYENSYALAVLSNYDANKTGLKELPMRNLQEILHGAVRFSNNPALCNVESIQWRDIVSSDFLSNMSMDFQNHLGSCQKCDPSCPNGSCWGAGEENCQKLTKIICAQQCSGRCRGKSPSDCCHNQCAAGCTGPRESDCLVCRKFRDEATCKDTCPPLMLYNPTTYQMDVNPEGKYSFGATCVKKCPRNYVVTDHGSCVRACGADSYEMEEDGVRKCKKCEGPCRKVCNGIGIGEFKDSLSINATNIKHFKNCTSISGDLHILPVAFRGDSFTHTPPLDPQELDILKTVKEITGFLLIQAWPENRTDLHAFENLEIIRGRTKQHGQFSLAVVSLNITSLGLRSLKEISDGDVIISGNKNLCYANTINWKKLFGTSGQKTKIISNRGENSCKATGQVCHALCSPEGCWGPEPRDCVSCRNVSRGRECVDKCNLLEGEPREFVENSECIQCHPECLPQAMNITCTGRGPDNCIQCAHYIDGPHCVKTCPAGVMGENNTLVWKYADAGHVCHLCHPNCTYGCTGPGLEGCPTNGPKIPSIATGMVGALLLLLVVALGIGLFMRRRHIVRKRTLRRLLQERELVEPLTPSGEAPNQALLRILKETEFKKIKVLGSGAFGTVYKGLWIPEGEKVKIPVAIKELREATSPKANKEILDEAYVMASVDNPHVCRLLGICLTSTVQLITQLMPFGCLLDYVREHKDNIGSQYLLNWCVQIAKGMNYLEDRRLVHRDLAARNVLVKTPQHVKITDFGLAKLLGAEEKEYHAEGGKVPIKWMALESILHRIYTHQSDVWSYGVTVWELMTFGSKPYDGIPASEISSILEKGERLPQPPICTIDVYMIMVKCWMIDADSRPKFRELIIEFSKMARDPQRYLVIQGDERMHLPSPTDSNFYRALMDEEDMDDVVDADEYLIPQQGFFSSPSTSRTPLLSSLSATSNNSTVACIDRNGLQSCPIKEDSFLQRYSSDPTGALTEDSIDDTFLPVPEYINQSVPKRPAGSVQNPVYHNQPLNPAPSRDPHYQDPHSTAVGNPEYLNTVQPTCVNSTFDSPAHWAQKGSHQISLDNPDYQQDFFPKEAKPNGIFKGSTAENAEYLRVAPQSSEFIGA
Method in brief: as §1

EGFR (C797S L858R) = target: T3, EGFR (C797S L858R) (Homo sapiens, UniProt P00533, C797S/L858R); assay: Inhibition of EGFR (C797S L858R) biochemical enzymatic activity (HTRF); conditions: EGFR (C797S L858R), 1 mM ATP, 1 h at room temperature, read-out: IC50 @L858-C797S
T3 construct: purchased signalchem
Method in brief: as §1

EGFR[T790M/C797S/L858R] = target: T4, EGFR[T790M/C797S/L858R] (Homo sapiens, UniProt P00533, C797S/L858R/T790M); assay: Inhibition of EGFR[T790M/C797S/L858R] biochemical enzymatic activity (HTRF); conditions: EGFR[T790M/C797S/L858R], 1 mM ATP, 1 h at room temperature, read-out: IC50 @T790M- C797S - L858R
T4 construct: purchased Carna Bio
T4 sequence (P00533 25-1210 T790M/C797S/L858R): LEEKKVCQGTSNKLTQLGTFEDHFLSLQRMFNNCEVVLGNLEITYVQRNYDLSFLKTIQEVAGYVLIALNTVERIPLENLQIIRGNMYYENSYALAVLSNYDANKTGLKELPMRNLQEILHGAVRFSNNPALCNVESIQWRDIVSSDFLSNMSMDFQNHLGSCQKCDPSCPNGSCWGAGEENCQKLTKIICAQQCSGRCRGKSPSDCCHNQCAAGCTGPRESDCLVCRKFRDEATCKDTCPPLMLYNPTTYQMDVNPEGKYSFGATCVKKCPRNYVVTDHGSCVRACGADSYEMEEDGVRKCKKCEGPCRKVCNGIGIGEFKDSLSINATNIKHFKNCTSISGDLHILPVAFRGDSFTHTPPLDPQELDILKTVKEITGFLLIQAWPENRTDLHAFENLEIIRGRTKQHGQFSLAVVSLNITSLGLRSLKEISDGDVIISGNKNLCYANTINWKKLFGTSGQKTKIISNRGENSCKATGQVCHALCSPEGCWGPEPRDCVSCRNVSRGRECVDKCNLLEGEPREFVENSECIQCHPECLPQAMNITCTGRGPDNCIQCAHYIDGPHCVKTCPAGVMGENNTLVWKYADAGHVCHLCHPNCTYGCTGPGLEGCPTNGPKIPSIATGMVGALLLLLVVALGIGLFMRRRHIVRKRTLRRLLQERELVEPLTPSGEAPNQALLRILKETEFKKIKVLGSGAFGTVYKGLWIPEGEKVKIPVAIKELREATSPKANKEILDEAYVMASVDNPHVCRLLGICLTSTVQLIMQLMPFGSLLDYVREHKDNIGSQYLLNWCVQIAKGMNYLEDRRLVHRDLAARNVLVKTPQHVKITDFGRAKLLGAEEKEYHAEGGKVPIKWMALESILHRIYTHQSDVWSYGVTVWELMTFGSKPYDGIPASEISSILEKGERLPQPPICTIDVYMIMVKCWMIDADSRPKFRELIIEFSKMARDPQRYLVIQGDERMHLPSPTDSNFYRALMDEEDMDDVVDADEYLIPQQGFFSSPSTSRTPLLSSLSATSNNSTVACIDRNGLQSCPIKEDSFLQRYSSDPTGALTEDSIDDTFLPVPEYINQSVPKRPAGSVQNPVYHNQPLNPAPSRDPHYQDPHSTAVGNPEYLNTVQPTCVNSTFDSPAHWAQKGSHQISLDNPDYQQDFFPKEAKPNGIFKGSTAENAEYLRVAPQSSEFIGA
Method in brief: as §1

EGFR L858R/T790M = target: T5, EGFR L858R/T790M (Homo sapiens, UniProt P00533, L858R/T790M); assay: Inhibition of EGFR L858R/T790M biochemical enzymatic activity (HTRF); conditions: EGFR L858R/T790M, 1 mM ATP, 1 h at room temperature, read-out: IC50 @L858R-T790M
T5 construct: purchased Carna Bio
Method in brief: as §1

PC-9 = assay: Cell proliferation assay, PC-9 cells (CellTiter-Glo, 72 hours); type: cell-based; conditions: PC9 cells, read-out: GI50 PC9
Method in brief: as §2

EGFR L858R = target: T6, EGFR L858R (Homo sapiens, UniProt P00533, L858R); assay: Inhibition of EGFR L858R biochemical enzymatic activity (HTRF); conditions: 1 mM ATP, 1 h at room temperature, read-out: IC50 @L858R
T6 construct: purchased Carna Bio
Method in brief: as §1

EGFR Exon19Del/T790M = target: T7, EGFR Exon19Del/T790M (Homo sapiens, UniProt P00533, DEL746-750/T790M); assay: Inhibition of EGFR Exon19Del/T790M biochemical enzymatic activity (HTRF); conditions: EGFR Exon19Del/T790M, 1 mM ATP, 1 h at room temperature, read-out: IC50 @Del19-T790M
T7 construct: purchased Carna Bio
T7 sequence (P00533 with tags, fused parts or gaps DEL746-750/T790M limits assumed): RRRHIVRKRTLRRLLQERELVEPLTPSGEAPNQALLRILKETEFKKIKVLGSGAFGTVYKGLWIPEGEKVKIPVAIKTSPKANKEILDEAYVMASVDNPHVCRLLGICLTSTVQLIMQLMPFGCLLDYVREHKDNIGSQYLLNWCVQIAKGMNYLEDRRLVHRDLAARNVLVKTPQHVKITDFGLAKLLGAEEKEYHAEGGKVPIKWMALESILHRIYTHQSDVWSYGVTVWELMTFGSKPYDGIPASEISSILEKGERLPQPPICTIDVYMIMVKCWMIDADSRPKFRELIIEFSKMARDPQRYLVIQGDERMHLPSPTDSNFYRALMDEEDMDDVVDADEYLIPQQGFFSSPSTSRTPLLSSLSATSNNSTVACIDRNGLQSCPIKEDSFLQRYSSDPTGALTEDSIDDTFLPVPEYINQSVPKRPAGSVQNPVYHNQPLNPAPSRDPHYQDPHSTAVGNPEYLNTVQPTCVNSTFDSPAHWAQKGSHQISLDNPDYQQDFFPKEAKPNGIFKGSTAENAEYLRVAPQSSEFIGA
Method in brief: as §1

[2] = target: T8, EGFR[T790M/C797S/d746-750] (Homo sapiens, UniProt P00533, C797S/DEL746-750/T790M); assay: Inhibition of EGFR[T790M/C797S/d746-750] biochemical enzymatic activity (HTRF); conditions: EGFR[T790M/C797S/d746-750], 1 mM ATP, 1 h at room temperature, read-out: IC50 @T790M - C797S - Del19
T8 construct: purchased Carna Bio
T8 sequence (P00533 with tags, fused parts or gaps DEL746-750/T790M/C797S limits assumed): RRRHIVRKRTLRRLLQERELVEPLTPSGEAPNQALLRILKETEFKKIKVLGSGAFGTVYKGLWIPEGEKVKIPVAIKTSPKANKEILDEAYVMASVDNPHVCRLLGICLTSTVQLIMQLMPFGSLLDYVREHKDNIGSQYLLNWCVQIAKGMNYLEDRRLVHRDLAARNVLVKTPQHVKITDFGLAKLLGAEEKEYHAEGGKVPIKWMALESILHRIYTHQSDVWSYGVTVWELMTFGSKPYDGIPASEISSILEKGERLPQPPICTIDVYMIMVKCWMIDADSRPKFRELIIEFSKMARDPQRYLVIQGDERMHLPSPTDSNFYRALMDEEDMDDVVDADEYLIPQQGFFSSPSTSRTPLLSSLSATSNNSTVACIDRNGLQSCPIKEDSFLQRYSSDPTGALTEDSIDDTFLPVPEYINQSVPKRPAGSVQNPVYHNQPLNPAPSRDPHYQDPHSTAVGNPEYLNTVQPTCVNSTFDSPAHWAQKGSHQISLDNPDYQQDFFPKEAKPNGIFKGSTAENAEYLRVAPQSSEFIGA
Method in brief: as §1

EGFR Exon19Del = target: T9, EGFR Exon19Del (Homo sapiens, UniProt P00533, DEL746-750); assay: Inhibition of EGFR Exon19Del biochemical enzymatic activity (HTRF); conditions: EGFR Exon19Del, 1 mM ATP, 1 h at room temperature, read-out: IC50 @Del19
T9 construct: purchased Carna Bio
T9 sequence (P00533 with tags, fused parts or gaps DEL746-750 limits assumed): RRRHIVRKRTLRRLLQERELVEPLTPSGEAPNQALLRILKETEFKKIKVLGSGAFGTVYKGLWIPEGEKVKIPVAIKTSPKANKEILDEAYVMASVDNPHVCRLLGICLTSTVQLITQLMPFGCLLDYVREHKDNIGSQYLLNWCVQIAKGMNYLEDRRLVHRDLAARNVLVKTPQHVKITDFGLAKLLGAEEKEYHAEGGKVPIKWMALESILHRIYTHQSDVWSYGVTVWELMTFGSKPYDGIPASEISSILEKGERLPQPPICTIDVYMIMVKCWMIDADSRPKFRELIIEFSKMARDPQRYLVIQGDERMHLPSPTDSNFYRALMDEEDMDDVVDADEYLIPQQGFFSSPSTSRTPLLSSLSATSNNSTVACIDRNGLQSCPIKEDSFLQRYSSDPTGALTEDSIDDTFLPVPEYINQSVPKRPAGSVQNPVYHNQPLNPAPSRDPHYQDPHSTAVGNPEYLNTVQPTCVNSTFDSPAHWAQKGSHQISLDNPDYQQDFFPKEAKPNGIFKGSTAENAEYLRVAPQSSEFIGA
Method in brief: as §1

[3] = BaF3 cells, EGFR DEL19 - C797S, read-out: GI50 DEL19 - C797S/BaF3
[4] = BaF3 cells, EGFR DEL19 - T790-C797S, read-out: GI50 DEL19 - T790-C797S/BaF3
[5] = BaF3 cells, EGFR L858R - C797S, read-out: GI50 L858R - C797S/BaF3
[6] = BaF3 cells, EGFR L858R - T790-C797S, read-out: GI50 L858R - T790-C797S/BaF3
[7] = BaF3 cells, EGFR L858R - T790M, read-out: GI50 L858R - T790M/BaF3
[8] = BaF3 cells, EGFR L858R, read-out: GI50 L858R/BaF3
[9] = EGFR DEL19 - T790M, read-out: GI50 DEL19 - T790M

Structure (SMILES)	GI50 (A-431; Homo sapiens, A-431, A-431 cells) [nM]	pIC50 (EGFR (d746-750 C797S))	GI50 [1, 3] [nM]	GI50 [1, 4] [nM]	GI50 [1, 5] [nM]	GI50 [1, 6] [nM]	GI50 [1, 7] [nM]	GI50 [1, 8] [nM]	GI50 [1, 9] [nM]	pIC50 (EGFR wild type)	pIC50 (EGFR (C797S L858R))	pIC50 (EGFR[T790M/C797S/L858R])	pIC50 (EGFR L858R/T790M)	GI50 (PC-9) [nM]	pIC50 (EGFR L858R)	pIC50 (EGFR Exon19Del/T790M)	pIC50 [2]	pIC50 (EGFR Exon19Del)	GI50 (A-431; A-431 cells) [nM]
Cc1cc2cc(n1)-c1cnn(C)c1OCCN1CC3CCC(C3)(C1)n1c(nc3ccc(N4CC5CC4CN5C)cc31)NC2=O (single isomer, unassigned) [Example B53B]	2570	8.72	2	2	4	2	2	13	6	6.01	8.02	8.77	8.59	10	7.28	8.41	8.72	8.28	–
Cc1cc2cc(n1)-c1cnn(C)c1OCCN1CC3CCC(C3)(C1)n1c(nc3ccc(N4CCC5(CC4)CCN5C)cc31)NC2=O (single isomer, unassigned) [Example B54A]	–	5.33	280	241	584	107	298	801	527	< 5.30	< 5.30	< 5.30	< 5.30	515	< 5.30	6.19	6.63	< 5.30	3410
Cc1cc2cc(n1)-c1cnn(C)c1OCCN1CC3CCC(C3)(C1)n1c(nc3ccc(N4CCC5(CC4)CCN5C)cc31)NC2=O (single isomer, unassigned) [Example B54B]	–	8.70	2	2	2	2	2	2	6	6.92	8.41	8.80	8.51	3	7.89	8.41	8.60	8.31	795
Cc1cc2cc(n1)-c1cnn(C)c1OCCN1CC3CCC(C3)(C1)n1c(nc3ccc(N4CCN(C5CC5)CC4)cc31)NC2=O (single isomer, unassigned) [Example B55A]	–	< 5.30	549	638	2560	350	939	4180	1100	< 5.30	< 5.30	< 5.30	< 5.30	1930	< 5.30	< 5.30	5.56	< 5.30	7540
